In ChEMBL document CHEMBL3632469, “Discovery of dihydroquinazolinone derivatives as potent, selective, and CNS-penetrant M(1) and M(4) muscarinic acetylcholine receptors agonists” (Bioorg Med Chem Lett, 2015):

Columns and labels:
[1] = molecular target: Muscarinic acetylcholine receptor M4 (Homo sapiens, UniProt P08173); experiment: Partial agonist activity at human muscarinic M4 acetylcholine receptor expressed in CHO cells co-expressing Galpha16 assessed as calcium mobilization by FLIPR assay; format: functional, cell-based
Rattus norvegicus = experiment: Antipsychotic-like activity in sc dosed rat assessed as inhibition of METH-induced locomotor hyperactivity; format: functional
[2] = molecular target: 5-hydroxytryptamine receptor 1F (Homo sapiens) (UniProt P30939); experiment: Antagonist activity at 5-HT1F receptor (unknown origin) expressed in CHO cells assessed as calcium mobilization at 3 uM; format: functional, cell-based
[3] = molecular target: Substance-P receptor (Homo sapiens) (UniProt P25103); experiment: Agonist activity at TaCR1 receptor (unknown origin) expressed in CHO cells assessed as calcium mobilization at 3 uM; format: functional, cell-based
[4] = molecular target: Cannabinoid receptor 1 (Homo sapiens) (UniProt P21554); experiment: Agonist activity at CB1 receptor (unknown origin) expressed in CHO cells assessed as calcium mobilization at 3 uM; format: functional, cell-based
[5] = molecular target: T1, Muscarinic acetylcholine receptor M2 (Homo sapiens) (UniProt P08172); experiment: Agonist activity at human muscarinic M2 acetylcholine receptor expressed in CHO cells co-expressing Galpha16 assessed as calcium mobilization at 30 uM by FLIPR assay; format: functional, cell-based
T1 sequence (whole entry): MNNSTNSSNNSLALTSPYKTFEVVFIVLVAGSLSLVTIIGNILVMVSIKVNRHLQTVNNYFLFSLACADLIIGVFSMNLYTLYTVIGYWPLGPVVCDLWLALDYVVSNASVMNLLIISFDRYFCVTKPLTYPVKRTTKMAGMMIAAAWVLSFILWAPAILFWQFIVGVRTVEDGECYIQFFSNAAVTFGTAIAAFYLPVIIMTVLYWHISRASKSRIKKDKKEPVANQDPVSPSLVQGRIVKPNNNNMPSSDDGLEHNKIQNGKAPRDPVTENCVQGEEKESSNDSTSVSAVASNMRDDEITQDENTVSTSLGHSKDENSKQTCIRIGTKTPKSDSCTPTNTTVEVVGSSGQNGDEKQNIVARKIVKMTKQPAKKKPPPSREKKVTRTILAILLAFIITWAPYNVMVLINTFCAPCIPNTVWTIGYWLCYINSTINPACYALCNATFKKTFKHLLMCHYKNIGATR

[6] = molecular target: Aryl hydrocarbon receptor (Homo sapiens, UniProt P35869); experiment: Induction of human AhR
[7] = molecular target: 5-hydroxytryptamine receptor 2C (Homo sapiens) (UniProt P28335); experiment: Agonist activity at 5-HT2C receptor (unknown origin) expressed in CHO cells assessed as calcium mobilization at 3 uM; format: functional, cell-based
[8] = molecular target: Nociceptin receptor (Homo sapiens) (UniProt P41146); experiment: Agonist activity at OPRL1 receptor (unknown origin) expressed in CHO cells assessed as calcium mobilization at 3 uM; format: functional, cell-based
[9] = molecular target: D(1A) dopamine receptor (Homo sapiens) (UniProt P21728); experiment: Agonist activity at dopamine D1 receptor (unknown origin) expressed in CHO cells assessed as calcium mobilization at 3 uM; format: functional, cell-based
[10] = molecular target: Adenosine receptor A2b (Homo sapiens) (UniProt P29275); experiment: Agonist activity at adenosine a2B receptor (unknown origin) expressed in CHO cells assessed as calcium mobilization at 3 uM
[11] = molecular target: 5-hydroxytryptamine receptor 4 (Homo sapiens) (UniProt Q13639); experiment: Agonist activity at 5-HT4B receptor (unknown origin) expressed in CHO cells assessed as calcium mobilization at 3 uM; format: functional, cell-based
[12] = molecular target: T2, Muscarinic acetylcholine receptor M5 (Homo sapiens) (UniProt P08912); experiment: Agonist activity at human muscarinic M5 acetylcholine receptor expressed in CHO cells assessed as calcium mobilization at 30 uM by FLIPR assay; format: functional, cell-based
T2 sequence (whole entry): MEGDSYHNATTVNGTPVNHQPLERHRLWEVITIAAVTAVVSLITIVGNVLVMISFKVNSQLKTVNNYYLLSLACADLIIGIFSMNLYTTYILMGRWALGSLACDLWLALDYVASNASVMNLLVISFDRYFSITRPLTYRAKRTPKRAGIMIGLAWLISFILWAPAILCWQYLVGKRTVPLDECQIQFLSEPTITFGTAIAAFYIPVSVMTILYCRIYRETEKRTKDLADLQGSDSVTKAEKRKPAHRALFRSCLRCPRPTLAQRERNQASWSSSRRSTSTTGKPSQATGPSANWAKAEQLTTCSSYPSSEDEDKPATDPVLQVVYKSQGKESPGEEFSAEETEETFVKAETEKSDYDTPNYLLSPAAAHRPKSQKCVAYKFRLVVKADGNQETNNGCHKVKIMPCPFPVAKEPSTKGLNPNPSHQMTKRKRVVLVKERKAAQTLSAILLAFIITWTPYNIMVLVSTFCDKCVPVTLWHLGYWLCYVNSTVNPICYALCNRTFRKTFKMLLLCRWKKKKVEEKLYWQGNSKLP

[13] = molecular target: Nociceptin receptor (Homo sapiens) (UniProt P41146); experiment: Antagonist activity at OPRL1 receptor (unknown origin) expressed in CHO cells assessed as calcium mobilization at 3 uM; format: functional, cell-based
[14] = molecular target: Kappa-type opioid receptor (Homo sapiens) (UniProt P41145); experiment: Antagonist activity at opiate kappa receptor (unknown origin) expressed in CHO cells assessed as calcium mobilization at 3 uM; format: functional, cell-based
[15] = molecular target: 5-hydroxytryptamine receptor 2B (Homo sapiens) (UniProt P41595); experiment: Antagonist activity at 5-HT2B receptor (unknown origin) expressed in CHO cells assessed as calcium mobilization at 3 uM; format: functional, cell-based
[16] = molecular target: D(4) dopamine receptor (Homo sapiens) (UniProt P21917); experiment: Agonist activity at dopamine D4 receptor (unknown origin) expressed in CHO cells assessed as calcium mobilization at 3 uM; format: functional, cell-based
[17] = molecular target: Beta-1 adrenergic receptor (Homo sapiens) (UniProt P08588); experiment: Agonist activity at adrenergic beta1 receptor (unknown origin) expressed in CHO cells assessed as calcium mobilization at 3 uM; format: functional, cell-based
[18] = molecular target: Alpha-2C adrenergic receptor (Homo sapiens) (UniProt P18825); experiment: Agonist activity at adrenergic a2C receptor (unknown origin) expressed in CHO cells assessed as calcium mobilization at 3 uM; format: functional, cell-based
[19] = molecular target: D(2) dopamine receptor (Homo sapiens) (UniProt P14416); experiment: Agonist activity at dopamine D2L receptor (unknown origin) expressed in CHO cells assessed as calcium mobilization at 3 uM; format: functional, cell-based
[20] = molecular target: Cysteinyl leukotriene receptor 2 (Homo sapiens) (UniProt Q9NS75); experiment: Agonist activity at CysLT2 receptor (unknown origin) expressed in CHO cells assessed as calcium mobilization at 3 uM; format: functional, cell-based
Sequence of Cysteinyl leukotriene receptor 2 (Homo sapiens) (Q9NS75 whole entry): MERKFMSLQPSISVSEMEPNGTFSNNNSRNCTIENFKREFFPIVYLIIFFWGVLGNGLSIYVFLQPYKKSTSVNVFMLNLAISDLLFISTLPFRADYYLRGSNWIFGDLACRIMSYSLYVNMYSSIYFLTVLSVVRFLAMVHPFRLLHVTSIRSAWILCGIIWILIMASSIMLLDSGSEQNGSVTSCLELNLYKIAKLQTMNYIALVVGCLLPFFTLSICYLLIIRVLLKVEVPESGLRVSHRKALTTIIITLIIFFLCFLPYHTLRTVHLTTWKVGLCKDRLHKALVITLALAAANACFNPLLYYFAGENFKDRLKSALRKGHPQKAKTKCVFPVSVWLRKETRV

Sequence of Nociceptin receptor (Homo sapiens) (P41146 whole entry): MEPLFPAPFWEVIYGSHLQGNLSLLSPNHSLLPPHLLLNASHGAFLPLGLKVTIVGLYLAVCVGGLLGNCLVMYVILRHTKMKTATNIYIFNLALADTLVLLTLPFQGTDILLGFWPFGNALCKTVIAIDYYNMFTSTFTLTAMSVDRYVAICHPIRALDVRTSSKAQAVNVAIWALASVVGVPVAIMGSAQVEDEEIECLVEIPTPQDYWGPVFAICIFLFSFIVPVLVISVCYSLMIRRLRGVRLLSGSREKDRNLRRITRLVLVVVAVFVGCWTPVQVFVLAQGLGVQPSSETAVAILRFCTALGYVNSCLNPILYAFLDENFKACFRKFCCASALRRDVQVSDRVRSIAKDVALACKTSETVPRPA
Sequence of D(2) dopamine receptor (Homo sapiens) (P14416 whole entry): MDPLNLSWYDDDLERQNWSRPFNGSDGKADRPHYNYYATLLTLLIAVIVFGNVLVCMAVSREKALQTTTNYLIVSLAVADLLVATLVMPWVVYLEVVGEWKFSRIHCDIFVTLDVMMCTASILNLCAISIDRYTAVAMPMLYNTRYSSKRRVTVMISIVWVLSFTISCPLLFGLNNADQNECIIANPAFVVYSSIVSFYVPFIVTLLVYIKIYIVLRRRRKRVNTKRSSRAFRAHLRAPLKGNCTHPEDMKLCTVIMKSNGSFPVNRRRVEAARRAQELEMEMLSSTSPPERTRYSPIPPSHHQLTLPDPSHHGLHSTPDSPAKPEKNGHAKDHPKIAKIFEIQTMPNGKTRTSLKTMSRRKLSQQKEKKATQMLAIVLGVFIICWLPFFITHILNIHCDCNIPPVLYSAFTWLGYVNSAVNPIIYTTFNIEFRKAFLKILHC
Sequence of Aryl hydrocarbon receptor (P35869 whole entry): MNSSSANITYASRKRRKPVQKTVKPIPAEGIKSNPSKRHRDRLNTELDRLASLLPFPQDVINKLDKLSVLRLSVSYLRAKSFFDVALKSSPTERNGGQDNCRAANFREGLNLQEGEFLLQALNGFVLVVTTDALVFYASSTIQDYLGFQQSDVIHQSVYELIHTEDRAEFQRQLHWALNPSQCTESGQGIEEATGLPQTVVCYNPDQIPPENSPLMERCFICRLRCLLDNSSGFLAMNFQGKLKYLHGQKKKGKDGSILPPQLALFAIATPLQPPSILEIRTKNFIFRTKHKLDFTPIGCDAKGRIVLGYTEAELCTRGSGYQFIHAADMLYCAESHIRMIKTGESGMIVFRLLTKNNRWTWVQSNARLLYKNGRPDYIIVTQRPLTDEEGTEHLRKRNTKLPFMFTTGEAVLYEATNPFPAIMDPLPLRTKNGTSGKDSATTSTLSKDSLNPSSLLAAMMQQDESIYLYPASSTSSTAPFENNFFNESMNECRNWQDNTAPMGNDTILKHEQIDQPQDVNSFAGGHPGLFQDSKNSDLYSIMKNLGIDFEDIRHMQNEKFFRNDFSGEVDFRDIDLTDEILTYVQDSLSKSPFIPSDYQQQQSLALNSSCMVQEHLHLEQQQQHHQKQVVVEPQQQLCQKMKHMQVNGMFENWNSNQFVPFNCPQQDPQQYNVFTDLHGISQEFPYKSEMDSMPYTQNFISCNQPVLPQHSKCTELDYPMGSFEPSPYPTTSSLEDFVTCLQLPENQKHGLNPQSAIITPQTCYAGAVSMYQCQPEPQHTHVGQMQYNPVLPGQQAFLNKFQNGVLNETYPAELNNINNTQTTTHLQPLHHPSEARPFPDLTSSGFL
Sequence of Cannabinoid receptor 1 (Homo sapiens) (P21554 whole entry): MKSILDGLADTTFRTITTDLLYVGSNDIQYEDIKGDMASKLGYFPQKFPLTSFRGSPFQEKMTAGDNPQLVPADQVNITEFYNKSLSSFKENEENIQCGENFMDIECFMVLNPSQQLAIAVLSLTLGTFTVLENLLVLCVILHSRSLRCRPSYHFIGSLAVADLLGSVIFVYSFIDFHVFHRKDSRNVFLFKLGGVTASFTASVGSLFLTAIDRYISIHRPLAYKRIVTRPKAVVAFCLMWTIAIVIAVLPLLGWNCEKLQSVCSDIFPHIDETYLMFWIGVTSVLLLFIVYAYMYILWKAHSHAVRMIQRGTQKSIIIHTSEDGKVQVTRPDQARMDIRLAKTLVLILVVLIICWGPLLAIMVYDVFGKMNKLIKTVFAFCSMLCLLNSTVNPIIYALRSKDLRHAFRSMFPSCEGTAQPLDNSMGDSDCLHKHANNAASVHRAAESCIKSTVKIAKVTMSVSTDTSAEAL
Sequence of Beta-1 adrenergic receptor (Homo sapiens) (P08588 whole entry, looked up): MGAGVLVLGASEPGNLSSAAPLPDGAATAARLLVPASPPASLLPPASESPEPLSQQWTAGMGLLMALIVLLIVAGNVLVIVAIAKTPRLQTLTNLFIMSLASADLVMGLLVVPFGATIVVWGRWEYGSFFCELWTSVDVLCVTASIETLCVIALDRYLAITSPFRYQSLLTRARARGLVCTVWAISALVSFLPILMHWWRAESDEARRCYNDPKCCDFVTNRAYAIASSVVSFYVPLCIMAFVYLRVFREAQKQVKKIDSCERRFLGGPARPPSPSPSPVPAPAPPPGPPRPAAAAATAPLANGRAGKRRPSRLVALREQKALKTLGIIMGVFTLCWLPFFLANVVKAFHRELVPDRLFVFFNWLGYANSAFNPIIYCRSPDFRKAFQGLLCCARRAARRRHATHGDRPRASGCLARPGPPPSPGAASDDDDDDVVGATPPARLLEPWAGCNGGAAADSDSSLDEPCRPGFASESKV
Sequence of D(1A) dopamine receptor (Homo sapiens) (P21728 whole entry): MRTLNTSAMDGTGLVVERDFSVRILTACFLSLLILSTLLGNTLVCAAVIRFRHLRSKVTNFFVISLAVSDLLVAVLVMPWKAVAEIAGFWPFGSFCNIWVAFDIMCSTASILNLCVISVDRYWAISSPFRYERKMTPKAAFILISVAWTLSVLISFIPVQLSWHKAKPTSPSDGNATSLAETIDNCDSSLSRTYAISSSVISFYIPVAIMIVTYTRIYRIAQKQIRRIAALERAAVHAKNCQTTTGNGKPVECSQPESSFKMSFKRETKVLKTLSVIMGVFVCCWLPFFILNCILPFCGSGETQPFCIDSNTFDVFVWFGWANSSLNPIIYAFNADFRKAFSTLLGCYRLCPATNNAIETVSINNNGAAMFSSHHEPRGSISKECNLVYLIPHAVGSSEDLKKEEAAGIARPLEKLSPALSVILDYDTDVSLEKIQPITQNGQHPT
Sequence of D(4) dopamine receptor (Homo sapiens) (P21917 whole entry): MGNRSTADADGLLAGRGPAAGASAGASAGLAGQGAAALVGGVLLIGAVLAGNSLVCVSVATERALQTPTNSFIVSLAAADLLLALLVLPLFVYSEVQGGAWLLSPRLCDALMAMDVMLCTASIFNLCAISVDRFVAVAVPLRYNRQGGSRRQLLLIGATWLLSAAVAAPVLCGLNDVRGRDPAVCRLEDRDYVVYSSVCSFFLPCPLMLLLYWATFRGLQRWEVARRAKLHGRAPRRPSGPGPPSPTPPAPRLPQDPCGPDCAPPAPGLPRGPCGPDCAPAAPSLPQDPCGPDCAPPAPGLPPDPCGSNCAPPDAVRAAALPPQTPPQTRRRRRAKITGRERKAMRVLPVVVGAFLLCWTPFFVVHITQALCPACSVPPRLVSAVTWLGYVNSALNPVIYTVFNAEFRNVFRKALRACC
Sequence of Muscarinic acetylcholine receptor M4 (P08173 whole entry): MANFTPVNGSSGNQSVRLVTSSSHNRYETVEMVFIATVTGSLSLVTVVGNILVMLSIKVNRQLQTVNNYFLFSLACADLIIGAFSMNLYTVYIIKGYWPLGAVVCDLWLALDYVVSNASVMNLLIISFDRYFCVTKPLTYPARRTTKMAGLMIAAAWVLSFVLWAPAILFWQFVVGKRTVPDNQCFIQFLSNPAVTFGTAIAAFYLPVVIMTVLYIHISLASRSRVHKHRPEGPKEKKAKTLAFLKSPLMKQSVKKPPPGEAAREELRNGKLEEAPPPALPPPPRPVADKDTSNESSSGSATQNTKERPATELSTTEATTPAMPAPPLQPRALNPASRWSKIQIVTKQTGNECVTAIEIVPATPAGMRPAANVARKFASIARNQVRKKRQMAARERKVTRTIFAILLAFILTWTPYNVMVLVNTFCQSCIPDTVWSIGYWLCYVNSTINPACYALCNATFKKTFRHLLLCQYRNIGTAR
Sequence of 5-hydroxytryptamine receptor 1F (Homo sapiens) (P30939 whole entry): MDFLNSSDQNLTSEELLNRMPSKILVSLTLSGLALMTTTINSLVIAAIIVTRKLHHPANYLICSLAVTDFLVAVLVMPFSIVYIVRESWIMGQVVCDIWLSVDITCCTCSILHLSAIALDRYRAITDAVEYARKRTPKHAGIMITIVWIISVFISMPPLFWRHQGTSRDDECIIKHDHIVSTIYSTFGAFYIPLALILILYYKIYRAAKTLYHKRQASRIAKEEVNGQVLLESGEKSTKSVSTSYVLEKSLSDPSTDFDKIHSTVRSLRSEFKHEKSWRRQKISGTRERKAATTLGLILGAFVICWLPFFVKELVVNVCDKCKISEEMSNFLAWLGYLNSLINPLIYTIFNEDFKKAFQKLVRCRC

SMILES: CCOC(=O)N1[C@@H]2CC[C@H]1C[C@H](CN1CC[C@@H](N3Cc4ccccc4NC3=O)C1)C2
- EC50 [1]: 86 nM
- ED50 (Rattus norvegicus): 3 mg/kg
- inhibition [2]: 1.04%
- Activity [3]: -0.13%
- Activity [4]: 1.66%
- Activity [5]: 3%
- Activity [6]: Not Active
- Activity [7]: 0.22%
- Activity [8]: 0.23%
- Activity [9]: 0.49%
- Activity [10]: -0.01%
- Activity [11]: -1.42%
- Activity [12]: 3%
- inhibition [13]: -4.61%
- inhibition [14]: 1.33%
- inhibition [15]: 6.13%
- Activity [16]: -0.14%
- Activity [17]: 0.03%
- Activity [18]: -0.89%
- Activity [19]: 0.06%
- Activity [20]: 0.03%
